The values below come from ChEMBL document CHEMBL5465560, “Selectivity Literature for EUbOPEN Chemogenomic Library” (2024).

The target of assay [1] is Serine/threonine-protein kinase 38-like (Homo sapiens) (UniProt Q9Y2H1). In words: Selectivity interaction (LanthaScreen Eu Kinase Binding Assay) EUB0001632a STK38L. As to conditions: at 10 µM. (Time-resolved FRET reads energy transfer from a long-lived donor to a nearby acceptor.)
In assay [2] the target is Dual specificity protein kinase CLK1 (Homo sapiens, UniProt P49759). The conditions noted are these: at 10 µM.
Assay [3] concerns the target Tyrosine-protein kinase receptor UFO (Homo sapiens) (UniProt P30530). In words: Selectivity interaction (Kinase panel (Invitrogen)) EUB0000639a AXL. The conditions noted are these: at 200 nM.
Assay [4] deals with T1, Mixed lineage kinase domain-like protein (Homo sapiens) (UniProt Q8NB16).
T1 sequence (whole entry): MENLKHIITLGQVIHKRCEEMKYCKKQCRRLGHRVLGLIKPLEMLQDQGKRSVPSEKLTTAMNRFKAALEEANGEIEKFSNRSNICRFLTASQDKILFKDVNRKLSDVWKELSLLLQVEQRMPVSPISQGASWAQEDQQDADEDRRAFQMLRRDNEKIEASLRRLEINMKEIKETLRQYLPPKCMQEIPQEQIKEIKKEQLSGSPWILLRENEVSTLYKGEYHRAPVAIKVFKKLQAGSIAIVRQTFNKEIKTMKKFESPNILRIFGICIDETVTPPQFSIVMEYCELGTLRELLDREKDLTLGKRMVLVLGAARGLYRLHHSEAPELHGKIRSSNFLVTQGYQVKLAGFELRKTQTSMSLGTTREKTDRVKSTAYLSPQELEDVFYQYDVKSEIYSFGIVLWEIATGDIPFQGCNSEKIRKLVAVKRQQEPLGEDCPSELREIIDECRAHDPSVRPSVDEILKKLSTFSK
Put plainly: Selectivity interaction (ActivX KiNativ screen (kinase selectivity in THP-1 cell lysates)) EUB0000639a MLKL. The conditions noted are these: lysate. It counts as subcellular.

The target in assay [5] is Mitogen-activated protein kinase kinase kinase 11 (Homo sapiens) (UniProt Q16584). In words: Selectivity interaction (Kinase panel (literature)) EUB0001199aCl MAP3K11. As to conditions: at 1 µM.
The target of assay [6] is T2, Inhibitor of nuclear factor kappa-B kinase subunit beta (Homo sapiens) (UniProt O14920).
T2 sequence (whole entry): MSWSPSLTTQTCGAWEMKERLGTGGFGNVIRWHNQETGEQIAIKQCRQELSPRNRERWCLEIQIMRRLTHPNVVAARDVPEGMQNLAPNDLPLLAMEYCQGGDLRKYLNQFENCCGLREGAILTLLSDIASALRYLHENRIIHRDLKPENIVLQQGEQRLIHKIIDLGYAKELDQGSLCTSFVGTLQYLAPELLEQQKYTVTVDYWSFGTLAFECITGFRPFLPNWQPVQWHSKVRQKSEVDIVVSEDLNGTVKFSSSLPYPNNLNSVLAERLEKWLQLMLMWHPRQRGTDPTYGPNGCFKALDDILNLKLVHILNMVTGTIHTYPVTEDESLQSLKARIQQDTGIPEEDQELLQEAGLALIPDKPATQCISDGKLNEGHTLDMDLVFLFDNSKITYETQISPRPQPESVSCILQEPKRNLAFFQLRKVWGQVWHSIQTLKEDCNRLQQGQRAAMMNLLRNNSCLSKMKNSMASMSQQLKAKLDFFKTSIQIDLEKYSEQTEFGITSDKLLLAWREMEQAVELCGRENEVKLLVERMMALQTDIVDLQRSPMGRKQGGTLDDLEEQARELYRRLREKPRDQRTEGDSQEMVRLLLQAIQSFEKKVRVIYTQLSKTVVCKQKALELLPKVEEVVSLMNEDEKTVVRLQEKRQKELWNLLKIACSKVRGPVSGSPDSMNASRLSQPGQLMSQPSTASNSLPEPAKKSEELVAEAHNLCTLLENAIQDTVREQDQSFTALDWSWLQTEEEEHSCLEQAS
In words: Selectivity interaction (ProQinase) EUB0000171b IKBKB.

Assay [7] has as its target Histone-lysine N-methyltransferase 2C (Homo sapiens) (UniProt Q8NEZ4). Put plainly: Selectivity interaction (Methyltransferase screen (radiometric assays, panel of 8 PRMTs, 21 protein lysine methyltransferases, 3 DNA methyltransferases, and one RNA methyltransferase)) EUB0000271b MLL3.
Assay [8] deals with Serine/threonine-protein kinase PAK 4 (Homo sapiens, UniProt O96013). Put plainly: Selectivity interaction (KinomeScan (DiscoverX)) EUB0001079a PAK4. The conditions noted are these: at 1 µM.
For assay [9], the target named is Death-associated protein kinase 2 (Homo sapiens) (UniProt Q9UIK4). In words: Selectivity interaction (KinomeScan (DiscoverX)) EUB0000229b DAPK2. The conditions noted are these: at 10 µM.
Assay [10] concerns the target T3, Serine/threonine-protein kinase MAK (Homo sapiens) (UniProt P20794).
T3 sequence (whole entry): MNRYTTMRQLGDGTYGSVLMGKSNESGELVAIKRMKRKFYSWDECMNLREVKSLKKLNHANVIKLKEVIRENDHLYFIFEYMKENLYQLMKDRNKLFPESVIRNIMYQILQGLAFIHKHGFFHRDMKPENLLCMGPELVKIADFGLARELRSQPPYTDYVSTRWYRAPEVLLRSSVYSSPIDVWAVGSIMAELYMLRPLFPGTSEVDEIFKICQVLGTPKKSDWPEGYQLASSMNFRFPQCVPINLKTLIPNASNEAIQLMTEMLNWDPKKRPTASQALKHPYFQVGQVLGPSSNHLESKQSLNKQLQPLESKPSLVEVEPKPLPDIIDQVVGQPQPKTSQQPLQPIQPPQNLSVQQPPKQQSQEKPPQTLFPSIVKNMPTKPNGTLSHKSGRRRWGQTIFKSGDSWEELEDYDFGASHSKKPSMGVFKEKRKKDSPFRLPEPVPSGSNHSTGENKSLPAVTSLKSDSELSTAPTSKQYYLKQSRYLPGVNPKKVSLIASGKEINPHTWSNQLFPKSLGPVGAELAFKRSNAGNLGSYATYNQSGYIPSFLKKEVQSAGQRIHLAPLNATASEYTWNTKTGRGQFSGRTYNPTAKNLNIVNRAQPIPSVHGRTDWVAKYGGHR
In words: Selectivity interaction (KinomeScan (DiscoverX)) EUB0000229b MAK. As to conditions: at 10 µM.

Assay [11] has as its target Ribosomal protein S6 kinase alpha-1 (Homo sapiens, UniProt Q15418). Put plainly: Selectivity interaction (KinomeScan (DiscoverX)) EUB0000229b RPS6KA1. As to conditions: at 10 µM.
Assay [12] deals with MAP kinase-activated protein kinase 3 (Homo sapiens) (UniProt Q16644). In words: Selectivity interaction (Kinase panel (KiNativ target engagement assay in Jurkat cells)) EUB0001635a MAPKAPK3. The assay is classed as cell-based. The conditions noted are these: Selectivity number of off-targets 0.0, Selectivity number of targets 233.0, Source Knowledge https://www.sciencedirect.com/science/article/pii/S2451945619300674?via%3Dihub, at 1 µM.

Chain of Histone-lysine N-methyltransferase 2C (Homo sapiens) (Q8NEZ4 whole entry): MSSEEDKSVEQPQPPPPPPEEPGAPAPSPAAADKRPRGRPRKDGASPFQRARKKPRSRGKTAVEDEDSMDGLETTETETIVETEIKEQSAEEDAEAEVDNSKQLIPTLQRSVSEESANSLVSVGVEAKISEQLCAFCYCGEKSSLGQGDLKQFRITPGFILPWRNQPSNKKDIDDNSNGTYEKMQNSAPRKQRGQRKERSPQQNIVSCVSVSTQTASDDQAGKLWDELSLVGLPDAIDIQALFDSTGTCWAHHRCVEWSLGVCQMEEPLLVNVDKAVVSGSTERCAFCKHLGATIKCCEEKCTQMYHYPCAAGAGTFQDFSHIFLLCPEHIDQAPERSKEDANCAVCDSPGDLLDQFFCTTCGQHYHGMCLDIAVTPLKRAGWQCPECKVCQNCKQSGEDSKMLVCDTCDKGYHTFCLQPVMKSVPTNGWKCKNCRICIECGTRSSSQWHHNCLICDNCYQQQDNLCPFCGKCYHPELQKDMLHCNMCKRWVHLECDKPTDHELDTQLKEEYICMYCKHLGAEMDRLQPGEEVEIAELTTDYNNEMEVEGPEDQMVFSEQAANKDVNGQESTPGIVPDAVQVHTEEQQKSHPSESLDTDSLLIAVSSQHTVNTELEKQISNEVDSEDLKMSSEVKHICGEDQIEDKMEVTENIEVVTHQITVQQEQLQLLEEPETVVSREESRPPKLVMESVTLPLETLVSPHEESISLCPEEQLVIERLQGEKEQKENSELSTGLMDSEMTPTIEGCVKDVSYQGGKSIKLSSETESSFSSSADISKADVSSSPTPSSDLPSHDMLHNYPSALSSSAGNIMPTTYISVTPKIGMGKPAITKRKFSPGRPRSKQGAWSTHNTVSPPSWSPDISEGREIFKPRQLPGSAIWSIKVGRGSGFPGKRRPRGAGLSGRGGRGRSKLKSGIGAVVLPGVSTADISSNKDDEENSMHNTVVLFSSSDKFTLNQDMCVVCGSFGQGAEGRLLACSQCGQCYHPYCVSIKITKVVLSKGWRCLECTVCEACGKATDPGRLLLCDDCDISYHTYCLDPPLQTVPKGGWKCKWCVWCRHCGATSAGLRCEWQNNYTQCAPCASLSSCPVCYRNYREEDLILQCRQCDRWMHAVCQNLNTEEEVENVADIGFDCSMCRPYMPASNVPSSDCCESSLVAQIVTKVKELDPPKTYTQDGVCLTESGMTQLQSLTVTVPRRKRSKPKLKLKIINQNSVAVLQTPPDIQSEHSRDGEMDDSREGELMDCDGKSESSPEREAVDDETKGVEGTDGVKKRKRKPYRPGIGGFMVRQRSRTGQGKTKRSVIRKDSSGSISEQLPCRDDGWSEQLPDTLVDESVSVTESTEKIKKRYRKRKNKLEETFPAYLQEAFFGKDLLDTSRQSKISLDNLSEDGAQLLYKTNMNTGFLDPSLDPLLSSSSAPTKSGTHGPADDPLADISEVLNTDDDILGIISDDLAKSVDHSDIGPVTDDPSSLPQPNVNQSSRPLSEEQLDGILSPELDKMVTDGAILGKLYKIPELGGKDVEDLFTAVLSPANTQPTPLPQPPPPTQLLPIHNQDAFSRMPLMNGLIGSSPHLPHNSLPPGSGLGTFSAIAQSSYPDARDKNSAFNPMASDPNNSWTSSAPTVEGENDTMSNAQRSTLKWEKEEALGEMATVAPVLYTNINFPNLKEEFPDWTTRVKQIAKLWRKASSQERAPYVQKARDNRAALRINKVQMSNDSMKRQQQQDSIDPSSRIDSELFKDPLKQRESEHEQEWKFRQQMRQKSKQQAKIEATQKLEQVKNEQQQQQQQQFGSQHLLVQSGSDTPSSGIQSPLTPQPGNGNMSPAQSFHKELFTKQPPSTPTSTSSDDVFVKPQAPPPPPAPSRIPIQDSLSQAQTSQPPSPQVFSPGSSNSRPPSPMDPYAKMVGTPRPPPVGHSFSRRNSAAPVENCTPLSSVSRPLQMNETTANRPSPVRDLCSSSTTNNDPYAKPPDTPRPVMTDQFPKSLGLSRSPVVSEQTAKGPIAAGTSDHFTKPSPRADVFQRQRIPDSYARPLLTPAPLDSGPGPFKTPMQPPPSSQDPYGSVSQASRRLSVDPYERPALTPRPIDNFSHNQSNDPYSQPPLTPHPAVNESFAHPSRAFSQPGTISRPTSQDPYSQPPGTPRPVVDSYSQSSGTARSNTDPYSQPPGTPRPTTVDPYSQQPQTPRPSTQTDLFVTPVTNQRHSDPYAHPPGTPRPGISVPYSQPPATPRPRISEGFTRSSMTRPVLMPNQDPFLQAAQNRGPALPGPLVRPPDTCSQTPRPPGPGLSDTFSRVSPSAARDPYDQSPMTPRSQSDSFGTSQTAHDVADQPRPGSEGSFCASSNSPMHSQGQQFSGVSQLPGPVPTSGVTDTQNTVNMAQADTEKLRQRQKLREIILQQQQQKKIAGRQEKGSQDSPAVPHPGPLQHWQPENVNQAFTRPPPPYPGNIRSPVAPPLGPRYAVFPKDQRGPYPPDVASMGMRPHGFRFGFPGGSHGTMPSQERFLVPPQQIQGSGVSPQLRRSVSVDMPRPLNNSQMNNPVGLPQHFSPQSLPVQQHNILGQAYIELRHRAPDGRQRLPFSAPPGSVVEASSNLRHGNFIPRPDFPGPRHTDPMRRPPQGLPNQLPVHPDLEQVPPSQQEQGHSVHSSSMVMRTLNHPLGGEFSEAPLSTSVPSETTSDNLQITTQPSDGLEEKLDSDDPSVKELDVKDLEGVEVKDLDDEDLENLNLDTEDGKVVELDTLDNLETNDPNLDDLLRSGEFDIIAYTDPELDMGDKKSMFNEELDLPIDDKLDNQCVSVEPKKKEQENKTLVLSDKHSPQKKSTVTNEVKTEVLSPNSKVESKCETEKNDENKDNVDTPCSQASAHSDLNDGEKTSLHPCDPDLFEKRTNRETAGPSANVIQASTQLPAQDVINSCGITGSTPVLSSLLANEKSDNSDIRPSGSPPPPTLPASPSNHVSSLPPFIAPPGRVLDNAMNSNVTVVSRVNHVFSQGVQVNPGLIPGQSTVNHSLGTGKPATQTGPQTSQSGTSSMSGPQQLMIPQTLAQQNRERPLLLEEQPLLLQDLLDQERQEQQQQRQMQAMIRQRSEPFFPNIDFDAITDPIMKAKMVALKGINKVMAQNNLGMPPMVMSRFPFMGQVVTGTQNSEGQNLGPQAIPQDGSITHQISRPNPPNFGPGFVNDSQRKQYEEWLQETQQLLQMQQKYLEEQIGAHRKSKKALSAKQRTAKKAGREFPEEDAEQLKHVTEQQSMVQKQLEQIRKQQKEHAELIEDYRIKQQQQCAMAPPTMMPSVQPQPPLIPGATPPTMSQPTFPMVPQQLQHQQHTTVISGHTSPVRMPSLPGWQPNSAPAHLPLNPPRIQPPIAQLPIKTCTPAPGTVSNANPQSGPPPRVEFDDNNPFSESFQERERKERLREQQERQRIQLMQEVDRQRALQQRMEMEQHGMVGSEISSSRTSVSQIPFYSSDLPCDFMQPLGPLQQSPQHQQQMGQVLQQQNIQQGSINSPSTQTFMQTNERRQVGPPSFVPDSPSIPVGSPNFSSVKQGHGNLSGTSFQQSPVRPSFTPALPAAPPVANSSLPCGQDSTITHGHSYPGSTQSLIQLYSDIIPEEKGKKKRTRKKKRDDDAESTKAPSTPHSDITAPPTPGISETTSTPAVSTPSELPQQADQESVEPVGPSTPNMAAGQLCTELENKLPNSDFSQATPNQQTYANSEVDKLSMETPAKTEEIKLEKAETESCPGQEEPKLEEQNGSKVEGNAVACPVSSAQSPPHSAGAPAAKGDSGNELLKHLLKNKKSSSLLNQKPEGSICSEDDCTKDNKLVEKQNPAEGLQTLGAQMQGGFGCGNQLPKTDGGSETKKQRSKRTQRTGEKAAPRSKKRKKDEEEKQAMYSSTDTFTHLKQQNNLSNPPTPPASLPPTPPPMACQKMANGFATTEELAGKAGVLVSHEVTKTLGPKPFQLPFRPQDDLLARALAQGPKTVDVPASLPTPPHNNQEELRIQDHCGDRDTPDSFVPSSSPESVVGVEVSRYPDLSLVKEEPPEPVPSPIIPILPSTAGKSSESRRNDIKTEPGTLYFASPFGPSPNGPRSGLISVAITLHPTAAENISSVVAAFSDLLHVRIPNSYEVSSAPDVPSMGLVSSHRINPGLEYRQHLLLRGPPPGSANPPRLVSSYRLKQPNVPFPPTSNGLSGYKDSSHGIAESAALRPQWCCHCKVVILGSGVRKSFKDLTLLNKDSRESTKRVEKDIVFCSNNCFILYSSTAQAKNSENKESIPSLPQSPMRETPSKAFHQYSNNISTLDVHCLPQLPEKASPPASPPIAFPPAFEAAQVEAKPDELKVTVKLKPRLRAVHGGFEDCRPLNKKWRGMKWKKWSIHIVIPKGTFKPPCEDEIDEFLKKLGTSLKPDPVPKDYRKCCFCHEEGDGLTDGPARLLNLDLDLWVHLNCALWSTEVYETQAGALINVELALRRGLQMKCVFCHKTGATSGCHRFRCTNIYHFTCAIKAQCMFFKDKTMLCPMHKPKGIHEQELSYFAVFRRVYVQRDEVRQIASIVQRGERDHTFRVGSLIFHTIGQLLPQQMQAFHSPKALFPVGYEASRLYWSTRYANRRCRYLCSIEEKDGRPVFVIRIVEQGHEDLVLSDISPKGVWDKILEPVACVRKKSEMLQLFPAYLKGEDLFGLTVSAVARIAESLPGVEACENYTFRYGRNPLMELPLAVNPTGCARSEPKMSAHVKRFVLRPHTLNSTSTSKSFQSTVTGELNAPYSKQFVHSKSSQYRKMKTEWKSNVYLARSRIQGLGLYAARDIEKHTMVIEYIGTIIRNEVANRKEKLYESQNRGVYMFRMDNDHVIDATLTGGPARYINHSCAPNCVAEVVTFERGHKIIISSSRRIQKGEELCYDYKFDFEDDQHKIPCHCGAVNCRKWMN

`Cn1cc(-n2cnc3c(NCc4nc5cc(Cl)c(Cl)cc5[nH]4)nc(N4CCOCC4)nc32)cn1`: in [1], the % of inhibition was -54.8%.
With `Cc1cc([C@@H](C)Nc2ccccc2C(=O)O)c2nc(N3CCOCC3)cc(=O)n2c1` [AZD-6482], the % of control in [2] is 74%.
Consider `CC[C@@H]1[C@H](F)C(=O)N[C@@H]1COc1nccc2cc(C(N)=O)c(OC)cc12` [ZIMLOVISERTIB], for which the % of inhibition in assay [3] was 12.2%; in assay [4] (at 0.01 µM) it was -3.7%; in [4] (at 0.04 µM), 7.2%; in assay [4] (at 0.2 µM), 16.3%; in assay [4] (at 1 µM) it was 42.3%; in assay [4] (at 5 µM), 76.6%.
As to `CN1Cc2nccc(-c3cn(C)nc3-c3ccc(F)cc3)c2C1=O`, the % of inhibition in [5] worked out at 3%.
Turning to `C=CC(=O)Nc1cccc(C(=O)Nc2ccc(Nc3cc(-c4[nH]c(SC)nc4C)ccn3)cc2)c1`, the % of control in assay [6] (at 1 µM) was 77%; in assay [6] (at 5 µM), 63%.
With `Cc1cc(C)cc([C@@H]2c3cc(C)ccc3NC(=O)CN2C(=O)c2ccc(Br)s2)c1`, the % of activity in [7] (at 1 µM) is 104%; in assay [7] (at 10 µM), 97%.
In [8], `Nc1cnc(N2CCc3cc(S(=O)(=O)Nc4c(F)cc(Cl)cc4F)cc(N4CCCC4=O)c32)nc1` [TP-020n] yielded a % of control of 89%.
For the compound `COc1cc(N(C)c2ccnc3ccc(C(F)(F)F)cc23)cc(OC)c1OC`, the values for the % binding in assay [9], in assay [10] and in assay [11] were 96%, 79% and 100%, respectively.
Regarding `C=CC(=O)Nc1ccc(C(=O)Nc2[nH]nc3c2CN(C(=O)N[C@H](CN(C)C)c2ccccc2)C3(C)C)cc1`, in assay [12], the % of engagement is -9.9%.
